Measured values taken from paper PMC11943016, “TBG096 Ameliorates Memory Deficiency in AD Mouse Model via Promoting Neurogenesis and Regulation of Hsc70/HK2/PKM2/LAMP2A Signaling Pathway” (International Journal of Molecular Sciences, 2025).

Assays:
HFD-induced AD mice = assay: Behavioral tests (Y-maze, NOR, MWM) in HFD-induced AD mice; type: in vivo
From the text: In experiments with the HFD-induced AD mouse model, a total of 60 Institute of Cancer Research (ICR) male mice aged 4 weeks from Zhejiang Academy of Medical Sciences (Hangzhou, China) were used for animal experiments (permit number: ZJU20230121). The animals were provided free access to a chow diet and water. […] The HFD and normal diet were alternated every two days to maintain freshness. Weekly measurements were taken for water intake, food intake, and body weight. In the eighteenth week, the mice underwent Y-maze and NOR tests. The Morris water maze test was conducted during the nineteenth week. After confirming the successful establishment of the AD model characterized by cognitive impairment, oral administration of treatments commenced. […] Each group had 10 mice.
The Y-maze test is used to evaluate working memory, and the process was referenced in another report. In brief, the Y-maze consists of three black plastic arms (A, B, and C) with the same length (30 cm), width (10 cm), height (15 cm), and 120° relative to adjacent arms. Each mouse is placed facing the wall of arm A and allowed to explore the maze freely for 5 min. The behavior of mice is recorded with a video recorder, and the data are stored in ANY-MAZE software version 6.35 (Stoelting, Chicago, IL, USA). The total number of entries made by the mice into each arm—considered as either whole or half-body entries—is recorded. An alternation is defined as a mouse moving through all three arms without returning to the initial arm on the third visit. Alternation: number of alternations/(number of arm entries − 2) × 100%.
The NOR test is utilized to assess the working memory capabilities of mice. The NOR apparatus consists of an open, black plastic box, two identical objects, and one novel object. The activity of the mice within the open field is captured and recorded using a video recorder, with data subsequently stored in ANY-MAZE software. The test is conducted over a span of two days, incorporating habituation, training, and testing stages. During the habituation phase, the mice are placed in the box devoid of any objects, allowing them to explore freely for a duration of five min. Following a 24 h interval, the NOR test is administered, which consists of both the training and testing phases. In the training phase, each mouse is positioned in the central area of the box, where two identical objects are placed equidistant from the mouse. Each training session lasts for five minutes. After a one-hour break, one of the identical objects is replaced with a new, distinct object, and the exploration duration for each mouse is recorded. Exploration is defined by the time a mouse spends touching or sniffing an object. The exploration times during both the training and testing phases are documented via video recording, and the data are organized within ANY-MAZE software. The object recognition index was defined as follows: (time spent on the new object)/(time spent on the old object + time spent on the new object) × 100%. The data are calculated by ANY-MAZE software.
The MWM test is used to measure spatial memory and long-term memory. The whole MWM equipment includes a circular water tank (diameter 1.5 m, depth 50 cm) with warm water (22 ± 1 °C) 35 cm deep, a platform (diameter 14 cm, immersed 1 cm in water), a camera, and a computer for data analysis. The MWM test is conducted over five 5 days: 4 days for training and 1 day for testing. The pool is divided into four quadrants, and at least three quadrants are tested at a time. In the training stage, the mouse is placed on the wall of one of the four quadrants and allowed to swim and find the platform hidden underwater within 120 s. If the mouse cannot find the platform, the experimenter will guide it and let it stay on the platform for 10 s. The experiment lasts for 4 days. On the fifth day of the test phase, the platform is removed, and each mouse is placed in a similar starting position and allowed to move freely for 90 s. […]

[1] = system: Hsc70, LAMP2A, APP, PKM2, and HK2 proteins; assay: Western blot of CMA proteins in PC12 cells (inhibitor experiment); type: cell-based; settings: TBG096 1 µM, 4 h, vs control
Procedure: In the inhibitor experiment of NGF-mimic activity, approximately 5 × 10^4 PC12 cells were seeded into each well of a 24-well plate and incubated for 24 h. After that, the medium in each well was replaced with 500 μL of serum-free DMEM or the serum-free DMEM containing VER155008, the inhibitor of Hsc70 protein, incubated in a CO2 incubator for 30 min. Subsequently, 500 μL of serum-free DMEM containing different samples was added and cultured, respectively. The PC12 cells with neurite outgrowth were recorded after 48 h. For the Western blot analysis, the experiment included five groups, namely the control (C) group, the NGF (40 ng/mL) group, the TBG096 (1 µM) group, the VER155008 (3 µM) group, and the VER155008 (3 µM) + TBG096 (1 µM) group. Afterwards, approximately 2 × 10^6 cells per dish were seeded into ten 6 cm Petri dishes with 5 mL of DMEM medium and incubated for 24 h. After giving different treatments with samples, the cells continued to culture for 4 h. Protein extraction was conducted to prepare for the subsequent Western blot analysis.
Approximately 50 mg of cerebral cortex from brain tissues was homogenized in RIPA lysis buffer containing 1% protease inhibitor and 1% phosphatase inhibitor. Then, the sample was centrifuged at 12,000 rpm at 4 °C for 10 min, and the supernatant was transferred to a new tube. Protein concentrations were determined using the BCA kit, and 30 µg of protein from each sample was denatured by heating in water at 100 °C for 10 min. Subsequently, approximately 30 µg of protein from each sample was loaded into each well. After conducting gel electrophoresis at 80 V for 15 min and then at 120 V for 60 min, the proteins were transferred to the polyvinylidene fluoride (PVDF) membrane for 90 min. Then, the PVDF membrane was blocked with 5% skimmed milk at room temperature for 60 min. The membrane was incubated with a diluted primary antibody at 4 °C overnight. After washing the membrane three times with TBST buffer (1× TBS buffer containing 0.05% (v/v) tween 20), it was incubated with the secondary antibody for 1 h at room temperature. Finally, the strip was developed using chemiluminescence ECL reagent, and the blot density was quantified with ImageJ (National Institutes of Health, Bethesda, MD, USA).

Compound: O=C(SCCCCCCSCCCC(F)(F)F)c1cccc(O)c1O [TBG096]
- alternation behavior, Y-maze test (HFD-induced AD mice; 0.1, 5, and 20 mg/kg, vs HFD-only, 20 mg/kg most pronounced): significantly improved
- optimal dose in NOR test (HFD-induced AD mice; HFD-induced AD mice): 5 mg/kg
- dosage of optimal therapeutic effect on memory (HFD-induced AD mice; HFD-induced AD mice, comparable to Met): 20 mg/kg
- number of arm entries, Y-maze test (HFD-induced AD mice; TBG096 0.1, 5, 20 mg/kg, Met 140 mg/kg, 54 days): No significant differences
- escape latency, MWM test phase (HFD-induced AD mice; fifth day): significant reductions
- escape latency, MWM training phase (HFD-induced AD mice; fourth day, Met 140 mg/kg and all doses of TBG096): markedly reduced
- discrimination index, NOR test phase (HFD-induced AD mice; vs HFD-only group): higher
- number of platform crossings, MWM test phase (HFD-induced AD mice; vs HFD-only group): increased significantly
- HK2 protein expression [1]: significantly decreased
- APP protein expression ([1]; VER155008 3 µM): significantly decreased
- Hsc70 protein level ([1]; VER155008 3 µM): significantly increased
- LAMP2A protein level ([1]; VER155008 3 µM): significantly increased
- PKM2 protein expression ([1]; VER155008 3 µM): significantly decreased
